Assay results published in PMC9050848, “Carbamoyl-N-aryl-imine-urea: a new framework to obtain a putative leishmanicidal drug-candidate” (RSC Advances, 2020).

Assays:
[1] = Chemical stability in PBS pH 7.4; format: physicochemical; conditions: PBS pH 7.4, 37 °C, 0 and 240 minutes
Method: To investigate the potential plasma instability of the carbamoyl-N-arylimine-urea subunit, designed as a new peptide mimetic framework, compound 10e (LASSBio-1736) was selected to investigate its plasma stability,[21,22] previously to the evaluation of its in vivo leishmanicidal effect. Quantitation of 10e (LASSBio-1736), benzocaine standard (positive control; it means a substrate drug for plasma hydrolysis) and ketoconazole (internal standard) was determined by UPLC-MS/MS, after incubation of the compounds at 0, 30, 60, 120 and 240 min with rat plasma, and measuring the peak areas in three different experiments. […]
final R1 factor for I >2σ(I ) 0.0594 final wR 2 factor for all data 0.1689 largest diff. peak / hole (e/Å 3) 0.220 and -0.256
Chemical stability pH 7.4
In a 10 mL tube, 5μL (250 ng/mL) of LASSBio-1736 (10e) (stock concentration = 10000 ng/mL solubilized in DMSO) was added in 195μ L of PBS (pH=7.4), and the mixture was placed in a shaker at 37 °C under vigorous stirring for 0 and 240 minutes. […]
The samples were resuspended with 100 μL of a methanol:water mixture (7:3) […] and were placed in 2 mL vials, and analyzed by UPLC-MS. […]

[2] = test system: L. amazonensis intracellular amastigotes; assay: Leishmanicidal activity against intracellular amastigote forms of L. amazonensis in J774.A1 macrophages; format: cell-based
Method: Considering that L. amazonensis is one of the causative species of cutaneous leishmaniasis in Brazil,[20] we have investigated the leishmanicidal effect of compounds 9a–e and 10a–e against L. amazonensis amastigotes forms. Initially, all compounds were evaluated at 30 μM. […] Then, they were selected to determine their IC50 value for intracellular amastigote forms of L. amazonensis.
Promastigotes of L. amazonensis (MHOM/BR/77/LTB0016) were obtained from Dr Eduardo Caio Torres dos Santos at Oswaldo Cruz Institute – Fiocruz. Promastigotes of L. braziliensis (MHOM/BR/01/BA788) were obtained from Dr Valéria de Matos Borges at Gonçalo Moniz Research Center – Fiocruz. The parasites were maintained in vitro in Schneider's medium, supplemented with 10% FBS and 2% human urine at 27 °C in BOD incubator.
Initially, compounds 9a–e and 10a–e were evaluated at screening concentration of 30 μM against L. amazonensis, using DMSO 0.03% as vehicle control, since this was the DMSO concentration (vehicle) remaining in each well with the tested compounds. […] Vehicle control used was DMSO 0.1%, since this was the concentration of DMSO (vehicle) existing in each well with the tested substances in the highest concentration used.
To assess the activity of the test derivatives against the amastigote stage of L. amazonensis and L. braziliensis the model of infection in coverglass was realized.[31] The murine macrophages (J774.A1 cell line) were prepared in 24-well cell culture plate (flat bottom, clear, Corning) at 2 × 10^5 adherent cells per well, infected with 2 × 10^6 promastigotes in glass coverslips placed inside 1 mL medium culture. The cultures were cultured or not with the test derivatives or reference drugs, and kept for 24 h at 37 °C, 5% CO2. After 24 h of incubation, the coverslips were washed, stained with Giemsa–May–Grünwald, and intracellular amastigotes were counted in 100 macrophages, using an optical microscope, on the objective of 100×. Thus, during the counting of 100 macrophages, the amount of amastigotes present within these defence cells was also determined. Data obtained from in vitro experiments were expressed as the mean ± S.E.M. of duplicate cultures of representative assays. Statistical differences between the treated and the control groups were evaluated by ANOVA and Dunnett hoc tests. Differences with a p value < 0.05 or lower were considered significant.

[3] = test system: J774.A1 cell lines (macrophages); assay: Cytotoxicity against J774.A1 macrophages, MTT assay; format: cell-based, murine (BALB/c); conditions: Mus musculus, J774.A1, 48 h, read-out: IC50 (concentration required to give 50% death of cells)
Method: Initially the cytotoxic profile of compounds 9a–e and 10a–e against J774.A1 cell lines (i.e., BALB/c macrophage cell lines) was investigated. Therefore, these cells were exposed to different concentrations (0.1–100 μM) of compounds 9a–e and 10a–e and the cytotoxic effect was measured after 48 h of drug incubation, by using MTT-based assay. The cytotoxicity was expressed as IC50 values (that means the concentration of a drug that kills half of the tested cells in culture). As depicted in Table 1, most compounds have shown low cytotoxic activity with IC50 > 100 μM.
These adherent-phenotype macrophage lines were cultured in Dulbecco's Modified Eagle's medium (DMEM, Sigma) supplemented with 10% FBS at 37 °C with 95% humidity and 5% CO2.
To evaluate the cytotoxic activity against the J774.A1 cell line, the host cells were plated in 96-well cell culture plate (flat bottom, clear, Corning) at 2 × 10^5 cells per well in complete culture medium 10% FBS at 37 °C. After 1 h wells were washed with warm Hank's Balanced Salt solution (HBSS) to remove non-adherent cells, leaving approximately 10^5 adherent macrophages. All cultures were done in DMEM complete supplemented with 10% FBS. The compounds and pentamidine were added at serial concentrations (0.1–100 μM). The cells were also cultured with medium free from compounds or vehicle (basal growth control) or in media with DMSO 0.1% (vehicle control). Positive control (dead cells) was obtained by cellular lysis with 1% of Triton 100× in DMEM complete (because it is a detergent in this concentration, Triton 100× destabilizes the cell membrane of macrophages, causing cell death). The cytotoxicity was evaluated by the MTT assay.[31] This assay consists of indirectly measuring cell viability through the mitochondrial enzymatic activity of macrophages. Viable cells are capable of reducing MTT to formazan. For this, after the incubation of plate for 48 h, 100 μL of MTT solution (0.5 mg mL^−1, in DMEM medium) was added per well, and the plate was incubated for 1 h. Then, the supernatant of each well was retired and was added 150 μL of DMSO. The absorbance was determined at 570 nm in a microplate reader. The cell viability of the cultures treated with the compounds was compared to the death pattern obtained in the control cultures. In the positive control, the cell death was confirmed when the optical density was equal to zero, confirming that the cells were not viable. Data obtained from experiments were expressed as the mean ± standard error of the mean (mean ± S.E.M.) and statistical differences between the treated and the vehicle groups of experiments were evaluated by ANOVA and Dunnett hoc tests.

[4] = L. amazonensis amastigotes, ratio of IC50 values

Structure (SMILES): O=C(N/N=C/c1ccc(C(F)(F)F)cc1)NNC(=O)c1ccc(Cl)cc1Cl [LASSBio-1736 (10e), 2,4-dichloro-phenylcarbamoyl-N-4-trifluoromethylphenylimine-urea]
- Stability to hydrolysis at PBS (pH 7.4) [1]: stable to hydrolysis
- Times less potent than miltefosine [2, 4]: ~4.0 times
- Times less potent than pentamidine [2, 4]: about 2.5 times
- Effect on the number of intracellular amastigotes ([2]; L. amazonensis, screening concentration 30 μM): decreased the number of intracellular amastigotes
- IC50 ([2]; Leishmania amazonensis, J774.A1, 24 h, read-out: IC50 (concentration required to give 50% death of parasites)): 84 ± 0.3 µM
- Emax ([2]; Leishmania amazonensis, J774.A1, L. amazonensis intracellular amastigotes, maximum toxicity vs 0.1% DMSO group, read-out: Maximum effect (% ± S.E.M.)): 57.6 ± 0.2%
- IC50 [3]: > 100 µM
